According to patent US10253002B2, “Compounds and methods of treating infections” (Neoculi Pty Ltd., priority 2013, dated 2019):

Experiments:
MRSA = test: Broth microdilution MIC, Example 7 (NCL812 and analogues); type: cell-based, Staphylococcus aureus; conditions: MIC testing, two MRSA strains
Description: (§1) Minimum inhibitory concentrations (μg/ml) were determined using the broth microdilution method recommended by the Clinical and Laboratory Standards Institute (CLSI). MIC breakpoints were determined by visual assessment and then confirmed using an ELISA plate reader, measuring absorbance levels at 600 nm. Bacterial growth (turbidity) in the wells with antimicrobial was compared with the amount of growth (turbidity) in the growth-control well (containing no antimicrobial). All isolates were tested in duplicate, if there was a difference of greater than one two-fold dilution in the results, the test was repeated a third time. The purity of the isolates was closely monitored during testing by subculturing the prepared bacterial inoculum onto SBA (sheep blood agar). […] The MIC50, MIC20 and MIC range (minimum and maximum) were calculated for each of the bacterial groups.
(§2) MICs were determined against two MRSA strains, two VRE strains and one strain each of E. coli and Pseudomonas aeruginosa.

VRE = test: as above; type: cell-based, Enterococcus spp.; conditions: for activity against VRE among analogues: MIC testing, two VRE strains; for VRE: bioassay ranking
Description: as §1, §2

Compound | activity against MRSA among analogues (MRSA) | activity against VRE among analogues (VRE) | VRE (VRE)
CC(Nc1cc(NC(C)c2ccccc2)ncn1)c1ccccc1 (centres unmarked) [NCL183] | greatest activity | greatest activity | 
C#Cc1cccc(C=NNC(=N)NN=Cc2cccc(C#C)c2)c1.Cl [NCL126] |  | greatest activity | 
Cl.N=C(NN=Cc1csc2ccc(Cl)cc12)NN=Cc1csc2ccc(Cl)cc12 [NCL141] |  | greatest activity | 
Cl.N=C(NN=Cc1cccc(Br)c1)NN=Cc1cccc(Br)c1 [NCL131] |  | greatest activity | 
Cl.N=C(NN=CC(=Cc1ccccc1)c1ccccc1)NN=CC(=Cc1ccccc1)c1ccccc1 [NCL138] | greatest activity |  | 
CC(Nc1cc(NC(C)c2ccccc2)nc(N)n1)c1ccccc1 (centres unmarked) [NCL184] | greatest activity | greatest activity | 32 µg/mL
Cl.OC/C(=N\Nc1cc(N/N=C(\CO)c2ccc(Cl)cc2)ncn1)c1ccc(Cl)cc1 [NCL189] | greatest activity | greatest activity | 
C/C(=N\Nc1cc(N/N=C(\C)c2ccc(Cl)cc2)ncn1)c1ccc(Cl)cc1 [NCL178] | greatest activity | greatest activity | 
Cl.N=C(NN=C(c1ccc(Cl)cc1O)C1CCCC1)NN=C(c1ccc(Cl)cc1O)C1CCCC1 [NCL159] | greatest activity | greatest activity | 
Cl.Clc1ccc(/C=N/Nc2cc(N/N=C/c3ccc(Cl)cc3)ncn2)cc1 [NCL187] | greatest activity | greatest activity | 
COc1ccc(C=CC=NNC(=N)NN=CC=Cc2ccc(OC)cc2)cc1.Cl [NCL150] | greatest activity |  | 
Cl.N=C(NN=Cc1ccc(OC(F)(F)F)cc1)NN=Cc1ccc(OC(F)(F)F)cc1 [NCL160] | greatest activity | greatest activity | 
Cl.N=C(NN=Cc1ccc(SC(F)(F)F)cc1)NN=Cc1ccc(SC(F)(F)F)cc1 [NCL166] | greatest activity | greatest activity | 
Cl.N=C(N/N=C/c1ccc(Cl)nc1)N/N=C/c1ccc(Cl)nc1 [NCL175] |  | greatest activity | 
CC(=NNC(=N)NN=C(C)c1ccccn1)c1ccccn1.Cl [NCL172] | greatest activity |  | 
CC(=NNC(=N)NN=C(C)c1ccc(N2CCNCC2)cc1)c1ccc(N2CCNCC2)cc1.Cl [NCL161] | greatest activity | greatest activity | 
C/C(=N\NC(=N)N)c1ccc(Cl)cc1.Cl [NCL191] | greatest activity | greatest activity | 
CSc1ccc(C=NNC(=N)NN=Cc2ccc(SC)cc2)cc1.Cl [NCL140] | greatest activity | greatest activity | 5 µg/mL
Cl.N=C(NN=Cc1ccc(O)cc1)NN=Cc1ccc(O)cc1 [NCL151] | greatest activity | greatest activity | 
CCCCc1ccc(C=NNC(=N)NN=Cc2ccc(CCCC)cc2)cc1.Cl [NCL136] | greatest activity | greatest activity | 
